The text below walks through data of patent US12029738B2, “Antiproliferative compounds and methods of use thereof” (Celgene Corporation, priority 2017, dated 2024).

One series relates to THLE-2. In words: Anti-proliferative counter-screen (CellTiter-Glo, 72 h). The class given is cell-based. The conditions noted are these: Homo sapiens. (In general: Counterscreens check selectivity or assay interference.)
Another series has as its system H929-1051 xenograft. In words: Lenalidomide-resistant H929-1051 xenograft, continuous QD dosing. The class given is in vivo, mouse. The source says:
FIG. 4. Antitumor activity of Compound 2 with continuous dosing in lenalidomide-resistant H929-1051 xenograft model. Female SCID mice were inoculated with 10×10^6 H929-1051 tumor cells into the right flank. Mice were randomized into treatment groups (n=10/group) at the time of treatment initiation. Test article treatment started on Day 14 when the tumors were approximately 120 mm^3.
Antitumor Activity of Compound 2 in Lenalidomide-resistant Multiple Myeloma Xenograft Model. The purpose of the study was to test the single agent antitumor activity of Compound 2 in an H929-1051 xenograft model with once daily dosing (QD) at 1, 3, 10, and 30 mg/kg.

Series [1] deals with neutrophil progenitors (bone marrow CD34+ cells from healthy donors). In words: Ex vivo maturation of myeloid progenitors to adult neutrophils. On the procedure: Methods: Ex vivo cultures of bone marrow (BM) CD34^+ cells from healthy donors (HD) were used to investigate neutrophil-specific ex vivo maturation. In vitro differentiation of neutrophil progenitors was induced by adding stem cell factor (SCF), fins-related tyrosine kinase 3 ligand (Flt3-L), and granulocyte colony stimulating factor (G-CSF) to culture media. Cell differentiation was evaluated by flow cytometry as the percentage of cells in 5 subpopulations: hematopoietic stem cells (HSC, CD34^+/CD33^−/CD11b^−) and Stage I (CD34^+/CD33^+/CD11b^−), Stage II (CD34^−/CD33^+/CD11b^−), Stage III (CD34^−/CD33^+/CD11b^+), and Stage IV (CD34^−/CD33^−/CD11b^+) (from immature to mature), as shown in FIG. 7. The effects of Compound 2 on maturation of neutrophil progenitors were assessed and different dosing schedules were evaluated to gain insight into the schedule dependence of these events.
Longer Daily Compound 2 Exposures. To further characterize the potential impacts of different schedules on arrest of neutrophil progenitor maturation and subsequent recovery, changes in the relative proportions of each of the aforementioned stages of myeloid progenitor […] CD34^+ BM cells derived from healthy donors were exposed to Compound 2 on 3 or 5 consecutive days starting on Day 10 for 6 h (Donors No. 1 and 2) or for 24 h (Donors No. 3 and 4) each day. […]

A further series has as its system MM cell lines. Kind of series: Daratumumab-mediated ADCC assay. The class given is cell-based, human. On the procedure:
ADCC Assay: The effect of Compound 2 or pomalidomide on daratumumab-mediated ADCC was evaluated in vitro by flow cytometry in a panel of MM cell lines. The NK cells were cultured overnight in NK culture medium containing 10 U/mL of recombinant human IL-2 before the start of the assay. The NK cells were washed and resuspended back in NK cell culture medium at 3.75×10^6 cells/mL. The MM cells were pretreated with sub-lethal concentrations of Compound 2 or pomalidomide for 72 h before using in the ADCC assay. The MM cells were washed and labelled with Tag-it Violet™ Proliferation and Cell Tracking Dye according to the manufacturer's instructions, followed by resuspension in NK culture medium at a concentration of 0.75×10^6 cells/mL. The ADCC assay was performed in triplicate with an effector to tumor ratio of 10:1 in a 96 well plate. MM cells (10 μL) were mixed with 10 μL of 2× concentration of daratumumab in the wells before the addition of 20 μL of NK cells. The co-cultures were incubated at 37° C. for 3 h followed by the addition of 50 μL of 7-AAD solution at room temperature for 15 minutes. The analysis was performed on a BD Celesta flow cytometer.

Molecules are shown by their SMILES.

Broadly, the IC50 is the midpoint of a concentration-inhibition curve. High values mean lower potency, low ones higher potency. In the series with THLE-2, `N#Cc1ccc(N2CCN(Cc3ccc(COc4cccc5c4CN([C@H]4CCC(=O)NC4=O)C5=O)cc3)CC2)c(F)c1` [Compound 2, (S)-4-(4-(4-(((2-(2,6-dioxopiperidin-3-yl)-1-oxoisoindolin-4-yl)oxy)methyl)benzyl)piperazin-1-yl)-3-fluorobenzonitrile] had an IC50 above 10 µM. For the same compound, the tumor volume reduction is 75% in the series on H929-1051 xenograft (1 mg/kg QD), 86% in the series on H929-1051 xenograft (3 mg/kg QD), 84% in the series on H929-1051 xenograft (10 mg/kg QD) and 85% in the series on H929-1051 xenograft (30 mg/kg QD). In addition, the loss of viability entry in series [1] is reported as “no loss of viability was observed”. Also, in series [1] (1, 10, 100 nM, 2, 4, 6 h exposures for up to 3 consecutive days), the “late-stage maturation of neutrophil progenitors” value is recorded as “blocked”. The “daratumumab-mediated ADCC of pretreated MM cells” value with MM cell lines (72 h pretreatment, sub-lethal concentrations, NK cells E:T 10:1) is listed as “higher degree of tumor lysis with daratumumab compared to untreated cells”. For the same compound, the “daratumumab-mediated ADCC” value in the series with MM cell lines (ARH-77 cell line) is reported as “enhanced ADCC”.
